Test results as given in patent US10793564B2, “Amino acid compounds and methods of use” (Pliant Therapeutics, Inc., priority 2018, dated 2020).

Molecular target: recombinant human integrin αVβ6 (Homo sapiens (Human), UniProt P06756+P18564)
Assay: Solid phase integrin αVβ6 binding assay
Conditions: inhibition of recombinant TGFβ1 LAP binding to coated integrin, IC50 presented in four ranges, read-out: αvβ6 Inhibition IC50 (nM) - range
Outline: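 Plates coated with recombinant human αVβ6 (2 μg/mL) and blocked; compounds competed with TGFβ1 LAP (0.67 μg/mL) in Mn2+ (0.5 mM)/BSA/sucrose TBS for 2 h at 25° C. Bound LAP detected by biotin anti-LAP and peroxidase-streptavidin; IC50 by four-parameter logistic fit.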

Sequence of recombinant human integrin αVβ6 (P06756 31-992): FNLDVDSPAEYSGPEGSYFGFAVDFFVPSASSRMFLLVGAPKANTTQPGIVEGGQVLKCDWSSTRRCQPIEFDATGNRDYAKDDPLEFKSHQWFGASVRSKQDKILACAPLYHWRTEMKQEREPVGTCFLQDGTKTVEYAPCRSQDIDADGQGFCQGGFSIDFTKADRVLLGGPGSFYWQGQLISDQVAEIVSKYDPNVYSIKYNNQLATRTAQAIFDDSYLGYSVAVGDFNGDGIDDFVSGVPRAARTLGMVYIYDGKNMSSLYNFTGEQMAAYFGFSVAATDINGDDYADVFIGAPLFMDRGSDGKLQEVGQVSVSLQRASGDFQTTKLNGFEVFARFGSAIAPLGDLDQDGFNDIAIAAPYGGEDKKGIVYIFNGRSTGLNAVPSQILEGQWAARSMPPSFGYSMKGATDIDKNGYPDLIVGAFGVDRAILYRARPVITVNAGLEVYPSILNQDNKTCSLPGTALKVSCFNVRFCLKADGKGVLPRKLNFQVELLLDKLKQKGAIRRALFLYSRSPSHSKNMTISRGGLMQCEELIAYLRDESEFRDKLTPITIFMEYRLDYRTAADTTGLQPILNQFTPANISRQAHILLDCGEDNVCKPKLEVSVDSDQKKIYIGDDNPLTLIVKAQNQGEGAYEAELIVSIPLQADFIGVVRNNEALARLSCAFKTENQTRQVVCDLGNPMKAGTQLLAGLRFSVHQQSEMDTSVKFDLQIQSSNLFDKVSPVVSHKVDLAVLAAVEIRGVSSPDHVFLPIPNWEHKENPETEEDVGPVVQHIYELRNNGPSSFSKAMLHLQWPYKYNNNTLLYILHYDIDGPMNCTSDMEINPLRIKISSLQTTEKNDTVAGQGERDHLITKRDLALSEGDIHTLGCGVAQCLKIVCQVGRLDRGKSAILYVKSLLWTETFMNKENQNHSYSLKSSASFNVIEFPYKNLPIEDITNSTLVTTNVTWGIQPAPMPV
Sequence of recombinant human integrin αVβ6 (P18564 22-707): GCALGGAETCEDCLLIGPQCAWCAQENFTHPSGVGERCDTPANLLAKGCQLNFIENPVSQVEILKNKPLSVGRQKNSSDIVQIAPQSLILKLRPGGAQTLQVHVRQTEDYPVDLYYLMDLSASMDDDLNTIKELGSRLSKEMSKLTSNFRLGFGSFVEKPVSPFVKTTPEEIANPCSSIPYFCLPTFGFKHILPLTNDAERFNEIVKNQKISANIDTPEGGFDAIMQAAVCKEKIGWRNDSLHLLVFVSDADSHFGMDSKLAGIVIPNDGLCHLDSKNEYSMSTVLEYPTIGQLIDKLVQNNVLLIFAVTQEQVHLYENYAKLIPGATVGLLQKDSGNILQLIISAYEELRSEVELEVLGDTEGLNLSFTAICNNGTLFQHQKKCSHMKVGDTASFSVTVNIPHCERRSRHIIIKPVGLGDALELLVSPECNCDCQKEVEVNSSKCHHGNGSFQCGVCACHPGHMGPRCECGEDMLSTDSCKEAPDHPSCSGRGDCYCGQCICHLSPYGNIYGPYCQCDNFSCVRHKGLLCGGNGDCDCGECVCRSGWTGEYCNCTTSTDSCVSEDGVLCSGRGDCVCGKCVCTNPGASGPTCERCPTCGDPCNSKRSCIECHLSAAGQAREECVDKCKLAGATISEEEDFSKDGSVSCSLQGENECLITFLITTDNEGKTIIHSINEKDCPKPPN

| IC50 [nM] | Compound |
| --- | --- |
| < 50 | CO[C@H](C)CN(CCCCc1ccc2c(n1)NCCC2)CC[C@H](Nc1cc(-n2cccn2)ncn1)C(=O)O [Compound 77, (S)-2-((6-(1H-pyrazol-1-yl)pyrimidin-4-yl)amino)-4-(((R)-2-methoxypropyl) (4-(5,6,7,8-tetrahydro-1,8-naphthyridin-2-yl)butyl)amino) butanoic Acid] |
| < 50 | CO[C@H](C)CN(CCCCc1ccc2c(n1)NCCC2)CC[C@H](Nc1ncc(F)cn1)C(=O)O [Compound 78, (S)-2-((5-fluoropyrimidin-2-yl)amino)-4-(((R)-2-methoxypropyl) (4-(5,6,7,8-tetrahydro-1,8-naphthyridin-2-yl)butyl)amino) butanoic Acid] |
| < 50 | CO[C@H](C)CN(CCCCc1ccc2c(n1)NCCC2)CC[C@H](Nc1ncnc2cn[nH]c12)C(=O)O [Compound 79, (S)-2-((1H-pyrazolo[4,3-d]pyrimidin-7-yl)amino)-4-(((R)-2-methoxypropyl) (4-(5,6,7,8-tetrahydro-1,8-naphthyridin-2-yl)butyl)amino) butanoic Acid] |
| < 50 | CO[C@H](C)CN(CCCCc1ccc2c(n1)NCCC2)CC[C@H](Nc1cc(-c2ccccc2)ncn1)C(=O)O [Compound 80, (S)-4-(((R)-2-methoxypropyl) (4-(5,6,7,8-tetrahydro-1,8-naphthyridin-2-yl)butyl)amino)-2-((6-phenylpyrimidin-4-yl)amino) butanoic Acid] |
| < 50 | Cn1ncc2c(N[C@@H](CCN(CCCCc3ccc4c(n3)NCCC4)CCOc3ccccc3)C(=O)O)ncnc21 [Compound 82, (S)-2-((1-methyl-1H-pyrazolo[3,4-d]pyrimidin-4-yl)amino)-4-((2-phenoxyethyl) (4-(5,6,7,8-tetrahydro-1,8-naphthyridin-2-yl)butyl)amino) butanoic Acid] |
| < 50 | O=C(O)[C@H](CCN(CCCCc1ccc2c(n1)NCCC2)CCOc1ccccc1)Nc1ncc(Br)cn1 [Compound 83, (S)-2-((5-bromopyrimidin-2-yl)amino)-4-((2-phenoxyethyl) (4-(5,6,7,8-tetrahydro-1,8-naphthyridin-2-yl)butyl)amino) butanoic Acid] |
| 250 to 1000 | COC[C@@H](F)CN(CCCCc1ccc2c(n1)NCCC2)CC[C@H](Nc1ncc(C(F)(F)F)cn1)C(=O)O [Compound 85, (S)-4-(((S)-2-fluoro-3-methoxypropyl) (4-(5,6,7,8-tetrahydro-1,8-naphthyridin-2-yl)butyl)amino)-2-((5-(trifluoromethyl)pyrimidin-2-yl)amino) butanoic Acid] |
| 50 to 250 | COC[C@@H](F)CN(CCCCc1ccc2c(n1)NCCC2)CC[C@H](Nc1ncc(Br)cn1)C(=O)O [Compound 86, (S)-2-((5-bromopyrimidin-2-yl)amino)-4-(((S)-2-fluoro-3-methoxypropyl) (4-(5,6,7,8-tetrahydro-1,8-naphthyridin-2-yl)butyl)amino) butanoic Acid] |
| 250 to 1000 | COC[C@@H](F)CN(CCCCc1ccc2c(n1)NCCC2)CC[C@H](Nc1ccnc(C(F)(F)F)n1)C(=O)O [Compound 87, (S)-4-(((S)-2-fluoro-3-methoxypropyl) (4-(5,6,7,8-tetrahydro-1,8-naphthyridin-2-yl)butyl)amino)-2-((2-(trifluoromethyl)pyrimidin-4-yl)amino) butanoic Acid] |
| > 1000 | Cn1ncc2c(N[C@@H](CCN(CCCCc3ccc4c(n3)NCCC4)CC(F)F)C(=O)O)ncnc21 [Compound 88, (S)-4-((2,2-difluoroethyl) (4-(5,6,7,8-tetrahydro-1,8-naphthyridin-2-yl)butyl)amino)-2-((1-methyl-1H-pyrazolo[3,4-d]pyrimidin-4-yl)amino) butanoic Acid] |
| < 50 | O=C(O)[C@H](CCN(CCCCc1ccc2c(n1)NCCC2)CCOc1ccccc1)Nc1ncc(C(F)(F)F)cn1 [Compound 89, (S)-4-((2-phenoxyethyl) (4-(5,6,7,8-tetrahydro-1,8-naphthyridin-2-yl)butyl)amino)-2-((5-(trifluoromethyl)pyrimidin-2-yl)amino) butanoic Acid] |
| < 50 | O=C(O)[C@H](CCN(CCCCc1ccc2c(n1)NCCC2)CCOc1ccccc1)Nc1ncnc2[nH]ncc12 [Compound 90, (S)-2-((1H-pyrazolo[3,4-d]pyrimidin-4-yl)amino)-4-((2-phenoxyethyl) (4-(5,6,7,8-tetrahydro-1,8-naphthyridin-2-yl)butyl)amino) butanoic Acid] |
| < 50 | O=C(O)[C@H](CCN(CCCCc1ccc2c(n1)NCCC2)CCOc1ccccc1)Nc1cc(-n2cccn2)ncn1 [Compound 91, (S)-2-((6-(1H-pyrazol-1-yl)pyrimidin-4-yl)amino)-4-((2-phenoxyethyl) (4-(5,6,7,8-tetrahydro-1,8-naphthyridin-2-yl)butyl)amino) butanoic Acid] |
| < 50 | O=C(O)[C@H](CCN(CCCCc1ccc2c(n1)NCCC2)CCOc1ccccc1)Nc1ccnc(C(F)(F)F)n1 [Compound 92, (S)-4-((2-phenoxyethyl) (4-(5,6,7,8-tetrahydro-1,8-naphthyridin-2-yl)butyl)amino)-2-((2-(trifluoromethyl)pyrimidin-4-yl)amino) butanoic Acid] |
| < 50 | O=C(O)[C@H](CCN(CCCCc1ccc2c(n1)NCCC2)CCOc1ccccc1)Nc1cc(-c2ccccc2)ncn1 [Compound 93, (S)-4-((2-phenoxyethyl) (4-(5,6,7,8-tetrahydro-1,8-naphthyridin-2-yl)butyl)amino)-2-((6-phenylpyrimidin-4-yl)amino) butanoic Acid] |
| < 50 | O=C(O)[C@H](CCN(CCCCc1ccc2c(n1)NCCC2)CCOc1ccccc1)Nc1nc(-c2cccnc2)nc2ccccc12 [Compound 94, (S)-4-((2-phenoxyethyl) (4-(5,6,7,8-tetrahydro-1,8-naphthyridin-2-yl)butyl)amino)-2-((2-(pyridin-3-yl)quinazolin-4-yl)amino) butanoic Acid] |
| > 1000 | O=C(O)[C@H](CCN(CCCCc1ccc2c(n1)NCCC2)CC(F)F)Nc1ncc(C(F)(F)F)cn1 [Compound 95, (S)-4-((2,2-difluoroethyl) (4-(5,6,7,8-tetrahydro-1,8-naphthyridin-2-yl)butyl)amino)-2-((5-(trifluoromethyl)pyrimidin-2-yl)amino) butanoic Acid] |
| > 1000 | O=C(O)[C@H](CCN(CCCCc1ccc2c(n1)NCCC2)CC(F)F)Nc1ncc(Br)cn1 [Compound 96, (S)-2-((5-bromopyrimidin-2-yl)amino)-4-((2,2-difluoroethyl) (4-(5,6,7,8-tetrahydro-1,8-naphthyridin-2-yl)butyl)amino) butanoic Acid] |
| > 1000 | O=C(O)[C@H](CCN(CCCCc1ccc2c(n1)NCCC2)CC(F)F)Nc1ccnc(C(F)(F)F)n1 [Compound 97, (S)-4-((2,2-difluoroethyl) (4-(5,6,7,8-tetrahydro-1,8-naphthyridin-2-yl)butyl)amino)-2-((2-(trifluoromethyl)pyrimidin-4-yl)amino) butanoic Acid] |
| > 1000 | O=C(O)[C@H](CCN(CCCCc1ccc2c(n1)NCCC2)CC(F)F)Nc1cc(-n2cccn2)ncn1 [Compound 98, (S)-2-((6-(1H-pyrazol-1-yl)pyrimidin-4-yl)amino)-4-((2,2-difluoroethyl) (4-(5,6,7,8-tetrahydro-1,8-naphthyridin-2-yl)butyl)amino) butanoic Acid] |
| 250 to 1000 | O=C(O)[C@H](CCN(CCCCc1ccc2c(n1)NCCC2)CC(F)F)Nc1nc(-c2cccnc2)nc2ccccc12 [Compound 99, (S)-4-((2,2-difluoroethyl) (4-(5,6,7,8-tetrahydro-1,8-naphthyridin-2-yl)butyl)amino)-2-((2-(pyridin-3-yl)quinazolin-4-yl)amino) butanoic Acid] |
| < 50 | CO[C@H](C)CN(CCCCc1ccc2c(n1)NCCC2)CC[C@H](Nc1nc(-c2cccnc2)nc2ccccc12)C(=O)O [Compound 100, (S)-4-(((R)-2-methoxypropyl) (4-(5,6,7,8-tetrahydro-1,8-naphthyridin-2-yl)butyl)amino)-2-((2-(pyridin-3-yl)quinazolin-4-yl)amino) butanoic Acid] |
| > 1000 | CS(=O)(=O)CCN(CCCCc1ccc2c(n1)NCCC2)CC[C@H](Nc1ncc(C(F)(F)F)cn1)C(=O)O [Compound 102, (S)-4-((2-(methylsulfonyl)ethyl) (4-(5,6,7,8-tetrahydro-1,8-naphthyridin-2-yl)butyl)amino)-2-((5-(trifluoromethyl)pyrimidin-2-yl)amino) butanoic Acid] |
| > 1000 | CS(=O)(=O)CCN(CCCCc1ccc2c(n1)NCCC2)CC[C@H](Nc1ncc(Br)cn1)C(=O)O [Compound 103, (S)-2-((5-bromopyrimidin-2-yl)amino)-4-((2-(methylsulfonyl)ethyl) (4-(5,6,7,8-tetrahydro-1,8-naphthyridin-2-yl)butyl)amino) butanoic Acid] |
| > 1000 | CS(=O)(=O)CCN(CCCCc1ccc2c(n1)NCCC2)CC[C@H](Nc1ccnc(C(F)(F)F)n1)C(=O)O [Compound 104, (S)-4-((2-(methylsulfonyl)ethyl) (4-(5,6,7,8-tetrahydro-1,8-naphthyridin-2-yl)butyl)amino)-2-((2-(trifluoromethyl)pyrimidin-4-yl)amino) butanoic Acid] |
| < 50 | COC[C@@H](F)CN(CCCCc1ccc2c(n1)NCCC2)CC[C@H](Nc1ncnc2c1cnn2C)C(=O)O [Compound 105, (S)-4-(((S)-2-fluoro-3-methoxypropyl) (4-(5,6,7,8-tetrahydro-1,8-naphthyridin-2-yl)butyl)amino)-2-((1-methyl-1H-pyrazolo[3,4-d]pyrimidin-4-yl)amino) butanoic Acid] |
| < 50 | CO[C@H](C)CN(CCCCc1ccc2c(n1)NCCC2)CC[C@H](Nc1ccncn1)C(=O)O [Compound 106, (S)-4-(((R)-2-methoxypropyl) (4-(5,6,7,8-tetrahydro-1,8-naphthyridin-2-yl)butyl)amino)-2-(pyrimidin-4-ylamino) butanoic Acid] |
